Measured values: US12473304B2, “Heterocyclic PAD4 inhibitors” (BRISTOL-MYERS SQUIBB COMPANY, priority 2020, dated 2025)

Molecular target: human PAD4 (hPAD4) (Homo sapiens (Human), UniProt Q9UM07)
Assay: RFMS Human PAD4 Functional Assay 1
Type: biochemical
Details: RFMS assay 1; 5 nM hPAD4, 250 μM BAEE substrate, 50 μM calcium, 37° C.
Procedure, shortened: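 Recombinant hPAD4 (5 nM) was preincubated with compound (top 50 μM, 0.5% DMSO) for 30 min at 37 °C, then reacted with 250 μM BAEE for 90 min at 37 °C in pH 7.5 HEPES buffer with 50 μM calcium and 5 μM TPEN. Product was derivatized with phenyl glyoxal and quantified by RapidFire MS.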

human PAD4 (hPAD4), sequence (Q9UM07 whole entry): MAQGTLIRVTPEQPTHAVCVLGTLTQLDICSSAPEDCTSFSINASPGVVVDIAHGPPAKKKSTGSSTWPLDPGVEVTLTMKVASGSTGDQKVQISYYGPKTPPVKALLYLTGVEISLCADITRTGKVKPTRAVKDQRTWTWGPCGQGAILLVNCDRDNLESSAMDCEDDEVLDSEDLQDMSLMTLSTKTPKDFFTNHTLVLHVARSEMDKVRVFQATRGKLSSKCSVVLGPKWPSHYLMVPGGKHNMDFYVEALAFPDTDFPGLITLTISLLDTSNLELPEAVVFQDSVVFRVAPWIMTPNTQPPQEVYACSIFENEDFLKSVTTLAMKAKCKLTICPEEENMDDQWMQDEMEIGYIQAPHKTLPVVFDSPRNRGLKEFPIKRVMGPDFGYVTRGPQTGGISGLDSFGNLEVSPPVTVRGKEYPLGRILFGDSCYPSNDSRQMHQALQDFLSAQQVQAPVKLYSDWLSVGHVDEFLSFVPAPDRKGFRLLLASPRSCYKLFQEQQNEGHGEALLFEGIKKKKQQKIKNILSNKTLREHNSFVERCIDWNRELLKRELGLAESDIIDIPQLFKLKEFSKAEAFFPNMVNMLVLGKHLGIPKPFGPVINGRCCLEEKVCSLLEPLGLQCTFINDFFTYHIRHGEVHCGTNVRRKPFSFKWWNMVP

Row | Structure (SMILES) | IC50 [nM]
1 | COc1cc(C(=O)N2CC3CCC2[C@@H]3N)cc2sc(-c3cc4ccc(N5CCC(N)CC5)cc4n3CC3CC3)c(C)c12 (stereo partly drawn) [Example 130, ((7R)-7-Amino-2-azabicyclo[2.2.1]heptan-2-yl)(2-(6-(4-aminopiperidin-1-yl)-1-(cyclopropylmethyl)-1H-indol-2-yl)-4-methoxy-3-methylbenzo[b]thiophen-6-yl)methanone] | 38
2 | COc1cc(C(=O)N2CC3CCC2[C@@H]3N)cc2sc(-c3cc4ccc(N5CCC(OC)CC5)cc4n3CC3CC3)c(C)c12 (stereo partly drawn) [Example 131, ((7R)-7-Amino-2-azabicyclo[2.2.1]heptan-2-yl)(2-(1-(cyclopropylmethyl)-6-(4-methoxypiperidin-1-yl)-1H-indol-2-yl)-4-methoxy-3-methylbenzo[b]thiophen-6-yl)methanone] | 146
3 | COc1cc(C(=O)N2CC3CCC2[C@@H]3N)cc2sc(-c3cc4ccc(-c5ccc6c(c5)CNC6=O)nc4n3CC3CC3)c(C)c12 (stereo partly drawn) [Example 132, 5-(2-(6-((7R)-7-Amino-2-azabicyclo[2.2.1]heptane-2-carbonyl)-4-methoxy-3-methylbenzo-[b]thiophen-2-yl)-1-(cyclopropylmethyl)-1H-pyrrolo[2,3-b]pyridin-6-yl)isoindolin-1-one] | 476
4 | COc1cc(C(=O)N2CC3CCC2[C@@H]3N)cc2sc(-c3cc4ccc(-c5ccc(C(N)=O)c(F)c5)nc4n3CC3CC3)c(C)c12 (stereo partly drawn) [Example 133, 4-(2-(6-((7R)-7-Amino-2-azabicyclo[2.2.1]heptane-2-carbonyl)-4-methoxy-3-methylbenzo[b]thiophen-2-yl)-1-(cyclopropylmethyl)-1H-pyrrolo[2,3-b]pyridin-6-yl)-2-fluorobenzamide] | 129
5 | COc1cc(C(=O)N2CC3CCC2[C@@H]3N)cc2sc(-c3cc4ccc(-c5cccc(O)c5F)nc4n3CC3CC3)c(C)c12 (stereo partly drawn) [Example 134, ((7R)-7-Amino-2-azabicyclo[2.2.1]heptan-2-yl)(2-(1-(cyclopropylmethyl)-6-(2-fluoro-3-hydroxyphenyl)-1H-pyrrolo[2,3-b]pyridin-2-yl)-4-methoxy-3-methylbenzo[b]thiophen-6-yl)methanone] | 212
6 | COc1cc(C(=O)N2CC3CCC2[C@@H]3N)cc2sc(-c3cc4ccc(-c5ccc6c(c5)C(=O)NC6)nc4n3CC3CC3)c(C)c12 (stereo partly drawn) [Example 135, 6-(2-(6-((7R)-7-Amino-2-azabicyclo[2.2.1]heptane-2-carbonyl)-4-methoxy-3-methylbenzo[b]thiophen-2-yl)-1-(cyclopropylmethyl)-1H-pyrrolo[2,3-b]pyridin-6-yl)isoindolin-1-one] | 233
7 | COc1cc(C(=O)N2CC3CCC2[C@@H]3N)cc2sc(-c3cc4ccc(-c5ccc(O)c(F)c5)nc4n3CC3CC3)c(C)c12 (stereo partly drawn) [Example 136, ((7R)-7-Amino-2-azabicyclo[2.2.1]heptan-2-yl)(2-(1-(cyclopropylmethyl)-6-(3-fluoro-4-hydroxyphenyl)-1H-pyrrolo[2,3-b]pyridin-2-yl)-4-methoxy-3-methylbenzo[b]thiophen-6-yl)methanone] | 705
8 | COc1cc(C(=O)N2CC3CCC2[C@@H]3N)cc2sc(-c3cc4ccc(N5CCC(OC)CC5)nc4n3CC3CC3)c(C)c12 (stereo partly drawn) [Example 137, ((7R)-7-Amino-2-azabicyclo[2.2.1]heptan-2-yl)(2-(1-(cyclopropylmethyl)-6-(4-methoxypiperidin-1-yl)-1H-pyrrolo[2,3-b]pyridin-2-yl)-4-methoxy-3-methylbenzo[b]thiophen-6-yl)methanone] | 71
9 | COc1cc(C(=O)N2C[C@H](N)C[C@@H](F)C2)cc2sc(-c3cc4cccnc4n3CC3CC3)c(C)c12 [Example 138, ((3R,5R)-3-Amino-5-fluoropiperidin-1-yl)(2-(1-(cyclopropylmethyl)-1H-pyrrolo[2,3-b]pyridin-2-yl)-4-methoxy-3-methylbenzo[b]thiophen-6-yl)methanone] | 252
10 | COc1cc(C(=O)N2C[C@H](N)C[C@@H](F)C2)cc2sc(-c3cc4ccc(-c5ccc6c(c5)CNC6=O)nc4n3CC3CC3)c(C)c12 [Example 139, 5-(2-(6-((3R,5R)-3-Amino-5-fluoropiperidine-1-carbonyl)-4-methoxy-3-methylbenzo[b]thiophen-2-yl)-1-(cyclopropylmethyl)-1H-pyrrolo[2,3-b]pyridin-6-yl)isoindolin-1-one] | 198
11 | COc1cc(C(=O)N2C[C@H](N)C[C@@H](F)C2)cc2sc(-c3cc4ccc(-c5ccc6c(c5)C(=O)NC6)nc4n3CC3CC3)c(C)c12 [Example 140, 6-(2-(6-((3R,5R)-3-Amino-5-fluoropiperidine-1-carbonyl)-4-methoxy-3-methylbenzo[b]thiophen-2-yl)-1-(cyclopropylmethyl)-1H-pyrrolo[2,3-b]pyridin-6-yl)isoindolin-1-one] | 346
12 | COc1cc(C(=O)N2C[C@H](N)C[C@@H](F)C2)cc2sc(-c3cc4ccc(-c5ccc(C(N)=O)c(F)c5)nc4n3CC3CC3)c(C)c12 [Example 141, 4-(2-(6-((3R,5R)-3-Amino-5-fluoropiperidine-1-carbonyl)-4-methoxy-3-methylbenzo[b]thiophen-2-yl)-1-(cyclopropylmethyl)-1H-pyrrolo[2,3-b]pyridin-6-yl)-2-fluorobenzamide] | 179
13 | COc1cc(C(=O)N2C[C@H](N)C[C@@H](F)C2)cc2sc(-c3cc4ccc(N5CCC(OC)CC5)nc4n3CC3CC3)c(C)c12 [Example 142, ((3R,5R)-3-Amino-5-fluoropiperidin-1-yl)(2-(1-(cyclopropylmethyl)-6-(4-methoxypiperidin-1-yl)-1H-pyrrolo[2,3-b]pyridin-2-yl)-4-methoxy-3-methylbenzo[b]thiophen-6-yl)methanone] | 642
14 | COc1cc(C(=O)N2C[C@H](N)C[C@@H](F)C2)cc2sc(-c3cc4ccc(-c5ccc6c(c5)C(=O)NC6)cc4n3CC3CC3)c(C)c12 [Example 143, 6-(2-(6-((3R,5R)-3-Amino-5-fluoropiperidine-1-carbonyl)-4-methoxy-3-methylbenzo[b]thiophen-2-yl)-1-(cyclopropylmethyl)-1H-indol-6-yl)isoindolin-1-one] | 588
15 | COc1cc(C(=O)N2C[C@H](N)C[C@@H](F)C2)cc2sc(-c3cc4ccc(-c5ccc6c(c5)CNC6=O)cc4n3CC3CC3)c(C)c12 [Example 144, 5-(2-(6-((3R,5R)-3-Amino-5-fluoropiperidine-1-carbonyl)-4-methoxy-3-methylbenzo[b]thiophen-2-yl)-1-(cyclopropylmethyl)-1H-indol-6-yl)isoindolin-1-one] | 164
16 | COc1cc(C(=O)N2CC3CCC2[C@@H]3N)cc2oc(-c3cc4cccnc4n3CC3CC3)c(C)c12 (stereo partly drawn) [Example 145, ((7R)-7-Amino-2-azabicyclo[2.2.1]heptan-2-yl)(2-(1-(cyclopropylmethyl)-1H-pyrrolo[2,3-b]pyridin-2-yl)-4-methoxy-3-methylbenzofuran-6-yl)methanone] | 285
17 | COc1cc(C(=O)N2CC3CCC2[C@@H]3N)cc2oc(-c3cc4ccc(Cl)nc4n3CC3CC3)c(C)c12 (stereo partly drawn) [Example 146, ((7R)-7-Amino-2-azabicyclo[2.2.1]heptan-2-yl)(2-(6-chloro-1-(cyclopropylmethyl)-1H-pyrrolo[2,3-b]pyridin-2-yl)-4-methoxy-3-methylbenzofuran-6-yl)methanone] | 1210
